Laboratory results taken from patent publication US20250041284A1, “TREATMENT OF NEUROLOGICAL DISORDERS” (Praxis Precision Medicines, Inc., priority 2022, published 2025).
Entries after “also recorded” stand apart in the source; their conditions may differ.

Columns and labels:
[1] = system: various NaV isoforms and orthologs; assay: ATX-II induced persistent INa at NaV isoforms and orthologs; type: cell-based; conditions: in words, FIG. 8C
[2] = system: MES-induced tonic hindlimb extension in male CD-1 mice; assay: MES acute seizure model, protection from tonic hindlimb extension (Example 9); type: in vivo, mouse
Experimental: Male CD-1 mice (Vital River, Beijing, China) approximately 6 weeks old were obtained for the study. Body weights were between 20.5 grams and 38.5 grams at the time the experiments were carried out. […] Food and water were available ad libitum.
Treatment was conducted using Compound 1 and 35% 2-hydroxypropyl-β-cyclodextrin (35% HPBCD, used as a negative control). Compound 1 stock solution was prepared fresh each experiment day in 35% HPBCD and protected from light. The stock solution was diluted with vehicle for lower doses.
Mice were brought to the test room at least one hour before the start of the experiment. Mice were administered valproate (VPA; 400 mg/kg, intraperitoneally); or vehicle (35% HPBCD, 10 mL/kg, intraperitoneally); or Compound 1 (0.3 mg/kg, 1 mg/kg, 3 mg/kg or 10 mg/kg, orally) 30 minutes prior to the MES test.
The electroshock apparatus was set to deliver a 50 mA square-wave stimulus, with a 0.8 second duration, a pulse width of 10 milliseconds, and a frequency of 50 Hz. A pair of custom stainless-steel electrodes were soaked in 0.2% agar, and then the subject received bilateral transauricular stimulation through ear-clip electrodes. During the stimulation, mice were manually restrained then released immediately into an observation cage where they were monitored continuously for 60 seconds by an observer blinded to treatment group.
Mice were anesthetized with CO2 and terminal plasma and brain tissue samples were collected. […] The supernatant plasma was pipetted into Eppendorf tubes.
All statistical analyses were conducted using GraphPad Prism 9.3. Means were combined and standard error was calculated using the Satterthwaite Approximation to combine standard deviations. […] ED50 and EC50 values were calculated from these fit curves.

[3] = Phase 1 clinical trial, single ascending dose (Part A), healthy volunteers; type: in vivo, human; conditions: healthy participants, single oral doses up to 45 mg
Source text: This is a trial to assess the safety, tolerability, pharmacokinetics (PK), and pharmacodynamics (PD) of Compound 1 in healthy participants aged 18 to 55 years (inclusive). The trial is initially comprised of 2 parts, with 1 additional optional part, as follows: • Part A is randomized, double-blinded, and placebo-controlled. Part A is designed to investigate the safety, PK, and PD of single ascending doses of Compound 1. • Part B is randomized, double-blinded, and placebo-controlled. Part B is designed to investigate the safety, PK, and PD of multiple ascending doses (selected based on the results from Part A) of Compound 1. • Part C (optional) is a randomized, open-label, crossover design food effect evaluation to investigate the PK of a single dose (selected based on the results from Part A) of Compound 1 in the fasted and fed state.
Safety and tolerability assessments for Parts A, B, and C will include vital signs, 12-lead ECGs, physical examinations, clinical laboratory tests, and the C-SSRS (for Part B).
Healthy participants will be enrolled to receive single ascending oral doses of Compound 1 or placebo on Day 1. FIG. 14A is an illustration of the dosing scheme for Part A (single ascending dose) of the trial. Dose escalation in Part A will initially be conducted in up to a total of 4 planned cohorts (Cohorts A1 to A4). Following completion of Cohort A4, up to an additional 3 escalation cohorts may be added. […] Doses may be adjusted upward or downward based on safety, tolerability, and PK data from the preceding cohorts. Cohorts after A4 will be numbered sequentially (A5, A6, etc.). […]
Compound 1 will be administered to Cohort A1 participants at the starting dose of 5 mg. […] The safety and tolerability of each sentinel participant will be monitored until Day 2 and will be reviewed prior to dosing the remainder of participants in the cohort. […]
Cohorts will be dosed in an escalating order. […] If the current dose level is determined to be safe and tolerated by the SRC, the next dose cohort will be randomized to receive the selected dose of active Compound 1 or placebo. […]

human NaV1.6 = target: T1, human NaV1.6 (Homo sapiens, UniProt Q9UQD0); assay: Peak INa use-dependent block (UDB-10 Hz), automated patch clamp in HEK cells; type: cell-based
T1 construct: HEK-293 cell lines stably expressing human NaV1.6 (NP_055006) were used; expressed in transfected cells
T1 sequence (Q9UQD0 whole entry): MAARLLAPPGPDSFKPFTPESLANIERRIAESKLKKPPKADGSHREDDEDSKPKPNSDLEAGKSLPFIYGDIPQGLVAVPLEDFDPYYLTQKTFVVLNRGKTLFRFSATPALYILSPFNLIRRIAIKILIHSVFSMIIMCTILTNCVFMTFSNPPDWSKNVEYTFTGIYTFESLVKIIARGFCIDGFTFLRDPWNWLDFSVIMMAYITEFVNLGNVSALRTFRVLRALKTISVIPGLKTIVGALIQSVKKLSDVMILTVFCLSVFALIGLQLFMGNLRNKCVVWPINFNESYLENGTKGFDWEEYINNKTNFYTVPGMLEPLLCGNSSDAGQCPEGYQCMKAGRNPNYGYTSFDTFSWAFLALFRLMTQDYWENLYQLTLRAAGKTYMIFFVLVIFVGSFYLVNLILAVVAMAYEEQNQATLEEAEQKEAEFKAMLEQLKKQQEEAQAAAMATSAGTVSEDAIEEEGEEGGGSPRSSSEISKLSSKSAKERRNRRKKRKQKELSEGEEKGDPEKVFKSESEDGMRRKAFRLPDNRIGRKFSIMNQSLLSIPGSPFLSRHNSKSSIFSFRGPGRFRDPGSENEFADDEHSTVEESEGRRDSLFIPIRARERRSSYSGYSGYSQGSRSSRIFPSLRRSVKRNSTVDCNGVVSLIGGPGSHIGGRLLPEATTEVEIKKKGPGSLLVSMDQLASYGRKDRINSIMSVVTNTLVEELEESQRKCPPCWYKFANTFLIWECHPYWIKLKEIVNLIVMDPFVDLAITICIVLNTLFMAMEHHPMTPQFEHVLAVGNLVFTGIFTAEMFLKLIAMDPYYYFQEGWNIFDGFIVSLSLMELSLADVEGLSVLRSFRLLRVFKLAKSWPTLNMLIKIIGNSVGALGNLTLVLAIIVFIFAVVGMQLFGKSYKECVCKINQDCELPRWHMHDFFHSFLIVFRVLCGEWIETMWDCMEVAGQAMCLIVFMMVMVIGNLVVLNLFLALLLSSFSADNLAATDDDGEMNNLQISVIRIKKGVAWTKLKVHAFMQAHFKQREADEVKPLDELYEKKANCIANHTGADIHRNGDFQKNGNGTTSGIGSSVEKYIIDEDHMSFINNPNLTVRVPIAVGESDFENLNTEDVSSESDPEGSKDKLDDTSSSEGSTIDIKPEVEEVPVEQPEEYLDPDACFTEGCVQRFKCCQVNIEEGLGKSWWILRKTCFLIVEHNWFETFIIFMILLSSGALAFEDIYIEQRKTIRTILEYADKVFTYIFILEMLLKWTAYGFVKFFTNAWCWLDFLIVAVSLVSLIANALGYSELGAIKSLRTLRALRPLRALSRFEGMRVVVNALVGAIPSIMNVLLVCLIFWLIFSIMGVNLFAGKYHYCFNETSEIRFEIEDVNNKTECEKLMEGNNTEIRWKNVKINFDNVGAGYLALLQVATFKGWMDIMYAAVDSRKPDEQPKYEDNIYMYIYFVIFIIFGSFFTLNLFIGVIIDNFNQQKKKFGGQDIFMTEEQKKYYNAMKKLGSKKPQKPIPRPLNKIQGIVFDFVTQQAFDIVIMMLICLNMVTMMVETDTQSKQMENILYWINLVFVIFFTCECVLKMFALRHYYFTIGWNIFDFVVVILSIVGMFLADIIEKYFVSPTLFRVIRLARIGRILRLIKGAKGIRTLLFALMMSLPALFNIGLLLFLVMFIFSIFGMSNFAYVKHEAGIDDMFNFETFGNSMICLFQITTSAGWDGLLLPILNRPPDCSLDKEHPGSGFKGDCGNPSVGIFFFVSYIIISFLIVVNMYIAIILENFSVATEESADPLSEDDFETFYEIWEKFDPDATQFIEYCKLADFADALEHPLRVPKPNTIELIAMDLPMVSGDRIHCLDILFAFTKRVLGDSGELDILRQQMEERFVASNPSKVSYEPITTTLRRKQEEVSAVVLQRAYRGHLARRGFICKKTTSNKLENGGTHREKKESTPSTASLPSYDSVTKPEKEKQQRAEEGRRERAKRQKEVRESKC

CCOC(F)(F)c1nnc2ccc(-c3cnc(OCC(F)(F)F)c(F)c3)cn12 [Compound 1]
inhibition of ATX-II induced persistent INa at multiple NaV isoforms and orthologs [1]: inhibits ATX-II induced persistent INa expressed by multiple NaV isoforms and orthologs
sedation or ataxia before MES test ([2]; 10 mg/kg orally): some mice showed sedation or ataxia; also recorded: six of thirty mice showed mild to moderate sedation
sedation or ataxia before MES test ([2]; 0.3 to 3 mg/kg orally): No sedation or ataxia was observed; also recorded: No sedation was observed
ED50 ([2]; Mus musculus, administered dose): 0.42 mg/kg
most frequently reported TEAEs [3]: headache and fatigue
safety and tolerability [3]: safe and generally well tolerated
severity of treatment-emergent adverse events (TEAEs) [3]: mild in severity
Emax (human NaV1.6; HEK293, fitted maximum of Hill equation, read-out: Peak INa UDB-10 Hz Max effect): 100%
UDB preference to TB (human NaV1.6; TB IC50 / UDB IC50): 44 ×
Ratio to Pers. INa (Peak INa UDB-10 Hz) (human NaV1.6; UDB IC50 / persistent INa IC50): 1.6
activity dependent block of peak INa (human NaV1.6; in words, FIGS. 7A-7C): enhanced activity dependent inhibition of peak INa
Peak INa UDB-10 Hz Hill slope (human NaV1.6; use-dependent block 10 Hz): (0.7)
IC50 (human NaV1.6; use-dependent block, Vm -120 mV, 10 Hz): 200 nM
